This is an account of results in patent publication US20250380697A1, “ISOXAZOLINE DERIVATIVE COMPOUND AND INSECTICIDAL COMPOSITION COMPRISING SAME” (KYUNG NONG CORPORATION, priority 2022, published 2025).

Common to all, as to type: in vivo
The subject of one series is Spodoptera exigua. The series can be described thus: Pesticidal activity against Spodoptera exigua, leaf-dipping method. The note with it: counted 24, 48, 72 hours, time not given, read-out: mortality rate, Spodoptera exigua. The method, then:
Cabbage (Daiya) leaves were cut into pieces with a diameter of 5.8 cm, dipped in the pesticide composition where the compound of Synthesis Example 2 was diluted (the solvent=distilled water+acetone 50,000 mg/L+Triton X-100 100 mg/L) for 30 seconds, and sufficiently shade-dried. Then, the shade-dried cabbage leaves were placed in a petri dish (8.8 cm in diameter) covered with filter paper and repeatedly inoculated 3-5 times with the second to the third instar larvae of Spodoptera exigua, 10 larvae per inoculation. In particular, the Spodoptera exigua larvae used were those purchased from the Bio Utilization Institute (Andong, Korea). Then, the Spodoptera exigua larvae were stored under the conditions of 16 hours of light and 8 hours of dark, 25±1° C. and 50-60% relative humidity, and the number of live Spodoptera exigua larvae was counted 24, 48, and 72 hours after the inoculation. Thereafter, the larvae mortality rate was calculated in the same manner as in Test Example 1 above.

The next series relates to Thrips tabaci Lindeman. As to the kind of experiment: Pesticidal activity against Thrips tabaci Lindeman, spray method. Conditions: adults, counted 24 and 48 hours, time not given, read-out: mortality rate, Thrips tabaci Lindeman. An excerpt:
A water-soaked filter paper (9.0 cm in diameter) was placed in an insect breeding dish (Lab Guide®) with a diameter of 9.0 cm and a height of 4.0 cm, and then parafilm (width 4.0 cm×height 4.0 cm) was placed thereon. Before being treated with a pesticide composition, 10 adult Thrips tabaci Lindeman were inoculated per petri dish using a No. 4 brush. In this case, Thrips tabaci Lindeman adults used were those collected in a place near the Andong National University (Korea) and bred for multiple generations. Then, the pesticide composition where the compound of Synthesis Example 2 was diluted (the solvent=distilled water+acetone 50,000 mg/L+Triton X-100 100 mg/L) was loaded into a 100 mL small sprayer, and sprayed 10-12 times at a distance of 30 cm and a height of 50 cm, and one cotyledons of soybean, which is a host plant, were added one at a time. Then, the Thrips tabaci Lindeman adults were stored under the conditions of 16 hours of light and 8 hours of darkness, 25±1° C., and relative humidity of 50-60%, and the number of live Thrips tabaci Lindeman adults was counted 24, and 48 hours after the inoculation. Thereafter, the larvae mortality rate was calculated in the same manner as in Test Example 1 above.

In the next series the test system is Grapholita molesta. As to the kind of experiment: Pesticidal activity against Grapholita molesta, spray method. The note with it: spray on apples, counted 24, 72, 192 hours, time not given, read-out: mortality rate, Grapholita molesta. As for the experimental part:
The pesticide composition where the compound of Synthesis Example 2 was diluted (the solvent=distilled water+acetone 50,000 mg/L+Triton X-100 100 mg/L) was directly sprayed on apples using a CO2 Sprayer® [a nozzle type: Teejet8002VS (a flat fan type), pressure: 800 psi), and then apples were collected 1 hour later, and Grapholita molesta larvae were repeatedly inoculated 5-6 times, 3 per apple. In particular, the Grapholita molesta larvae were collected in the R&D Center of Kyung Nong Co., Ltd. (Gyeongju, Korea), and they were used after acclimatization indoors for 24 hours. Then, the Grapholita molesta larvae were stored under the conditions of 16 hours of light and 8 hours of dark, 25±1° C. and relative humidity of 50-60%, and the number of live Grapholita molesta larvae was counted 24, 72, and 192 hours after the inoculation. Thereafter, the larvae mortality rate was calculated in the same manner as in Test Example 1 above.

For a further series, the system named is Manulea degenerella. The series can be described thus: Pesticidal activity against Manulea degenerella, spray method. Conditions: third instar larvae, counted 24, 48, 72 hours, time not given. An excerpt:
A water-soaked filter paper (9.0 cm in diameter) was placed in an insect breeding dish (Lab Guide®) with a diameter of 9.0 cm and a height of 4.0 cm, and then parafilm (width 4.0 cm×height 4.0 cm) was placed thereon. Before treating with a pesticide composition, 10 of the third instar Manulea degenerella larvae were inoculated per breeding dish using a No. 4 brush. In particular, Manulea degenerella larvae used were those collected in Icheon, Gyeonggi-do (Korea). Then, the pesticide composition where the compound of Synthesis Example 2 was diluted (the solvent=distilled water+acetone 50,000 mg/L+Triton X-100 100 mg/L) was loaded into a 100 mL small sprayer, and sprayed 10-12 times at a distance of 30 cm and a height of 50 cm, and one cotyledons of a persimmon tree, which is a host plant, were added one at a time. Then, the Manulea degenerella larvae were stored under the conditions of 16 hours of light and 8 hours of darkness, 25±1° C., and relative humidity of 50-60%, and the number of live Manulea degenerella larvae was counted 24, 48, and 72 hours after the inoculation. Thereafter, the larvae mortality rate was calculated in the same manner as in Test Example 1 above.

Another series deals with Helicoverpa armigera. The series can be described thus: Pesticidal activity against Helicoverpa armigera, leaf-dipping method. Conditions: counted 24, 48, 72 hours, time not given, read-out: mortality rate, Helicoverpa armigera. As for the experimental part: Cabbage (Daiya) leaves were cut into pieces with a diameter of 5.8 cm, dipped in the pesticide composition where the compound of Synthesis Example 2 was diluted (the solvent=distilled water+acetone 50,000 mg/L+Triton X-100 100 mg/L) for 30 seconds, and sufficiently shade-dried. Then, the shade-dried cabbage leaves were placed in a petri dish (8.8 cm in diameter) covered with a filter paper and repeatedly inoculated 3-5 times with third instar larvae of Helicoverpa armigera, 10 larvae per inoculation. In this case, Helicoverpa armigera larvae used were those purchased from the Andong National University (Korea). Then, the Helicoverpa armigera larvae were stored under the conditions of 16 hours of light and 8 hours of dark, 25±1° C., and relative humidity of 50-60%, and the number of live Helicoverpa armigera larvae was counted 24, 48, and 72 hours after the inoculation. Thereafter, the larvae mortality rate was calculated in the same manner as in Test Example 1 above.

The mortality is the share of the test organisms that died. Turning to `Cc1cc(C2=NOC(c3cc(Cl)cc(C(F)(F)F)c3)(C(F)(F)F)C2)ccc1C(=O)NC(=O)C1CC1` (racemic) [Synthesis Example 2], the mortality at 1 ppm in the series on Spodoptera exigua came to 100%; with Thrips tabaci Lindeman, 70%. Further, the mortality at 10 ppm was found to be 100% in the series with Spodoptera exigua, 100% with Thrips tabaci Lindeman and 85% in the series on Grapholita molesta. The mortality at 3 ppm in the series on Thrips tabaci Lindeman turned out to be 90%. The “mortality rate, Manulea degenerella” value in the series with Manulea degenerella (0.1 ppm) and with Manulea degenerella (1 ppm) was 100% throughout. In addition, the mortality at 0.1 ppm in the series with Helicoverpa armigera worked out at 100%.
As for `CON=CNC(=O)c1ccc(C2=NOC(c3cc(Cl)cc(Cl)c3)(C(F)(F)F)C2)cc1C` (stereo not drawn) [Comparative Example 1, fluxametamide], the figures for the mortality at 1 ppm in the series on Spodoptera exigua and in the series with Thrips tabaci Lindeman were 100% and 63%, respectively. Further, the mortality at 10 ppm was found to be 100% with Spodoptera exigua, 86% in the series on Thrips tabaci Lindeman and 85% with Grapholita molesta. Also, the mortality at 3 ppm with Thrips tabaci Lindeman was found to be 83%. Besides, the “mortality rate, Manulea degenerella” value in the series with Manulea degenerella (0.1 ppm) is on record as 0%; in the series with Manulea degenerella (1 ppm) it was 16%%. Also, in the series with Helicoverpa armigera, the mortality at 0.1 ppm turned out to be 78%.
For the molecule `CNC(=O)c1cc(Cl)cc(C)c1NC(=O)c1cc(Br)nn1-c1ncccc1Cl` [Comparative Example 2, chlorantraniliprole], the mortality at 1 ppm in the series with Spodoptera exigua was 46%. Moreover, the mortality at 10 ppm in the series with Spodoptera exigua was found to be 71%; in the series with Grapholita molesta, 85%. In addition, the “mortality rate, Manulea degenerella” value with Manulea degenerella (0.1 ppm) and in the series on Manulea degenerella (1 ppm) was 100% in each case. Moreover, the mortality at 0.1 ppm with Helicoverpa armigera was found to be 31%.
